The data set concerns C57BL/6 mice. The data set is described as follows: Cy5-mRNA biodistribution, ex vivo organ fluorescence after IV injection. Format: in vivo, mouse. Particulars: 0.5 mg/kg mRNA IV, 6 h. The procedure:
FIG. 1B illustrates ex vivo fluorescence of Cy5-labelled mRNA in major organs extracted from C57BL/6 mice intravenously injected with example SORT LNPs (as described herein) that incorporate increasing percentages of different SORT molecules (0.5 mg/kg mRNA/body weight, 6 h).
FIG. 1C illustrates relative average Cy5 fluorescence measured in the liver, lung, and spleen as a function of SORT molecule percent inclusion (0.5 mg/kg mRNA/body weight, n=2). SORT molecules promote mRNA biodistribution to target organs. Data are shown as mean±s.e.m.
We first investigated the biodistribution of mRNA encapsulated in example SORT LNPs to determine whether there was a correlation between the organs in which the SORT LNPs accumulated and their tissue-specific mRNA activity. We formulated example liver, lung, and spleen SORT LNPs encapsulating Cy5-labelled mRNA following the identical protocols and formulation parameters used in our previous publications. We administered each LNP IV to C57BL/6 mice and tracked the in vivo biodistribution of the Cy5-mRNA using fluorescence imaging. Six hours post-injection, organs were excised and imaged ex vivo (FIG. 1B). The average fluorescence produced by the liver, spleen, and lungs was quantified (FIG. 1C). […] Importantly, these tracking studies quantify where the example SORT LNPs biodistribute but not where mRNA is translated to protein (functional delivery).

`CCCCCCCC/C=C\CCCCCCCC(=O)OCC(CN(C)C)OC(=O)CCCCCCC/C=C\CCCCCCCC` (stereo not shown) [DODAP, 1,2-Dioleoyl-3-dimethylammonium-propane]: the “SORT molecule inclusion giving optimal liver biodistribution” value turned out to be 20%.

The values are drawn from US20260151350A1, “COMPOSITIONS AND METHODS FOR TARGETED DELIVERY TO CELLS” (The Board of Regents of The University of Texas System, priority 2021, published 2026).
